For one assay, the target named is T1, c-MYC (Homo sapiens, UniProt P01106).
T1 construct: recombinant c-MYC protein (RayBiotech) immobilized on CM5 chip
Put plainly: SPR (Biacore X100, steady-state affinity). Type of assay: binding.

A further assay has as its target T2, MYC (Homo sapiens, UniProt P01106, A416G/K413A/P406A/V409A).
T2 construct: recombinant MYC protein carrying the predicted substitutions (MedChemExpress HY-P7S1056)
Put plainly: SPR (Biacore X100, steady-state affinity). It counts as binding.

T2 sequence (P01106 16-454 P406A/V409A/K413A/A416G): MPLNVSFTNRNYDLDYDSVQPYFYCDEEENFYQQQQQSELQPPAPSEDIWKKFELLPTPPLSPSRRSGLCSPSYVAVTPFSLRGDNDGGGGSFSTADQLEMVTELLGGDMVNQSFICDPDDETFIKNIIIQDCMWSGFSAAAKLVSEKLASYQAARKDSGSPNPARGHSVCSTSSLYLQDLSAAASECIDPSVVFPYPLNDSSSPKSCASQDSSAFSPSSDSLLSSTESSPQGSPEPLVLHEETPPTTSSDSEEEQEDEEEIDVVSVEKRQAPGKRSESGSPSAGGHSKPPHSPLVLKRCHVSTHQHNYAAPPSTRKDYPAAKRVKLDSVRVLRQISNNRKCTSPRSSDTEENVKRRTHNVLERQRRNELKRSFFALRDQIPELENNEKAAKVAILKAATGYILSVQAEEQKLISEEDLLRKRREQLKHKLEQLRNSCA
T1 sequence (P01106 16-454): as the sequence (P01106 16-454 P406A/V409A/K413A/A416G) above, with A391P, A394V, A398K, G401A counted along it

As for `Nc1cc(F)ccc1NC(=O)c1ccc(CNC(=O)/C=C/c2cccnc2)cc1` [chidamide], the Kd turned out to be 0.795 µM at c-MYC and 3.12 µM on MYC.

The record behind these values is PMC12334614, “Chidamide and cytarabine synergistically treat acute myeloid leukemia: inhibiting ribosome biogenesis via the MYC-RRP9 pathway” (Cell Death & Disease, 2025).
